Nine compounds from PubChem BioAssay (NCI) can be followed below.

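1) Cells in 96-well plates. 2) Compound, 48 h, 5 concentrations. 3) Linear interpolation between surrounding doses. 4) Unreached endpoint = highest concentration. TGI: total growth inhibition.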 Bounds are passed on as bounds.

Test systems include SK-MEL-28 melanoma; SF-295 CNS; EKVX NSCLC; RPMI-8226 leukemia; HOP-92 NSCLC; KM12 colon; LOX IMVI melanoma; RXF 393 renal; TK-10 renal; SK-MEL-5 melanoma; SN12C renal; SW-620 colon; A498 renal; SF-268 CNS; MDA-N; OVCAR-3 ovarian; SK-MEL-2 melanoma; HL-60(TB) leukemia.
Common to all, as to experiment: NCI-60 cell line screen, 48 h

Turning to `Cc1oc2nc(N(C)C)n3c(C)nnc3c2c1C`, the TGI in the assay on SK-MEL-28 melanoma, in the assay with SF-295 CNS, with EKVX NSCLC, in the assay on RPMI-8226 leukemia, with HOP-92 NSCLC and with KM12 colon was over 100 µM in each case. The TGI with LOX IMVI melanoma, with RXF 393 renal, with TK-10 renal, in the assay with SK-MEL-5 melanoma, in the assay on SN12C renal and with SW-620 colon was over 100 µM each time. Moreover, the TGI in the assay with A498 renal and in the assay on SF-268 CNS was over 100 µM in each case.
Regarding `CCCN=C1S/C(=C/c2ccc(OC)c(OC)c2)C(=O)N1c1ccccc1`, the TGI in the assay on SK-MEL-28 melanoma is over 100 µM; in the assay on SF-295 CNS, 34.9 µM; in the assay on EKVX NSCLC, over 100 µM; in the assay with RPMI-8226 leukemia, over 100 µM; in the assay with HOP-92 NSCLC, over 100 µM; in the assay on KM12 colon it was over 100 µM. The TGI is over 100 µM with LOX IMVI melanoma; over 100 µM with MDA-N; 55.2 µM in the assay on TK-10 renal; 43.3 µM in the assay with OVCAR-3 ovarian; over 100 µM with SK-MEL-5 melanoma; over 100 µM with SN12C renal. Also, the TGI was over 100 µM in the assay on SW-620 colon; 85.8 µM in the assay with SK-MEL-2 melanoma; 58.2 µM in the assay with A498 renal; over 100 µM in the assay with HL-60(TB) leukemia; over 100 µM in the assay on SF-268 CNS.
`O=C(CC(C(=O)c1ccsc1)c1cccs1)c1ccsc1` (stereo unspecified): the TGI in the assay with SK-MEL-28 melanoma, in the assay on SF-295 CNS, in the assay with EKVX NSCLC, with RPMI-8226 leukemia, with KM12 colon and in the assay with LOX IMVI melanoma was over 100 µM in each case. The TGI with MDA-N, in the assay on TK-10 renal, with SK-MEL-5 melanoma, in the assay with SN12C renal, in the assay on SW-620 colon and with SK-MEL-2 melanoma was over 100 µM in each case. Also, the TGI with A498 renal, in the assay with HL-60(TB) leukemia and in the assay on SF-268 CNS was over 100 µM in each case.
For `N#Cc1c(-c2ccccc2)cc(Nc2ccc(F)cc2)n2c1nc1ccccc12`, the TGI in the assay with SK-MEL-28 melanoma is over 100 µM; in the assay on SF-295 CNS it was over 29.6 µM; with EKVX NSCLC it was over 29.1 µM; in the assay with RPMI-8226 leukemia it was over 100 µM; in the assay with KM12 colon, over 100 µM; in the assay with LOX IMVI melanoma, over 30.4 µM. Besides, the TGI in the assay with RXF 393 renal was over 31.4 µM; in the assay on TK-10 renal, over 54 µM; in the assay on OVCAR-3 ovarian, 19.3 µM; in the assay on SK-MEL-5 melanoma, 2.73 µM; in the assay on SN12C renal it was 6.1 µM; with SW-620 colon, over 100 µM. Also, the TGI in the assay on SK-MEL-2 melanoma is 4.35 µM; in the assay with A498 renal, 12 µM; in the assay on HL-60(TB) leukemia, over 100 µM; with SF-268 CNS, over 62.1 µM.
As for `COC1(CCO)CC=CCC1(CCO)OC` (stereo unspecified), the TGI with SK-MEL-28 melanoma, with SF-295 CNS, in the assay with EKVX NSCLC, in the assay on RPMI-8226 leukemia, in the assay with HOP-92 NSCLC and in the assay on KM12 colon was over 100 µM throughout. The TGI with LOX IMVI melanoma, in the assay with MDA-N, with TK-10 renal, in the assay on OVCAR-3 ovarian, in the assay with SK-MEL-5 melanoma and in the assay on SN12C renal was over 100 µM throughout. For the same compound, the TGI in the assay on SW-620 colon, in the assay on SK-MEL-2 melanoma, with HL-60(TB) leukemia and in the assay on SF-268 CNS was over 100 µM in each case.
As for `COc1ccc2c(c1)OCC1Cc3cccc(OC)c3OC21` (stereo unspecified), the TGI in the assay with SF-295 CNS, in the assay with EKVX NSCLC, with RPMI-8226 leukemia, in the assay on HOP-92 NSCLC, in the assay on KM12 colon and with LOX IMVI melanoma was over 100 µM in each case. For the same compound, the TGI in the assay with MDA-N was over 100 µM; in the assay with TK-10 renal, over 100 µM; in the assay on OVCAR-3 ovarian it was over 100 µM; in the assay with SK-MEL-5 melanoma, 35.7 µM; in the assay on SN12C renal it was over 100 µM; in the assay on SW-620 colon, over 100 µM. In addition, the TGI in the assay with SK-MEL-2 melanoma, in the assay with A498 renal and in the assay on SF-268 CNS was over 100 µM in each case.
`O=C(O)c1ccccc1/C=C1\Cc2ccc3c(c2C1=O)CCCC3`: the TGI in the assay with SK-MEL-28 melanoma is over 100 µM; with SF-295 CNS, 99.5 µM; with EKVX NSCLC, over 100 µM; in the assay on RPMI-8226 leukemia it was 60.8 µM; with HOP-92 NSCLC it was 47.6 µM; with KM12 colon, over 100 µM. The TGI was over 100 µM in the assay on LOX IMVI melanoma; 76.3 µM in the assay with RXF 393 renal; over 100 µM with TK-10 renal; over 100 µM with OVCAR-3 ovarian; 37 µM in the assay on SK-MEL-5 melanoma; over 100 µM in the assay with SN12C renal. Moreover, the TGI in the assay on SW-620 colon was over 100 µM; in the assay with SK-MEL-2 melanoma, 88.7 µM; with A498 renal, 89 µM; in the assay with HL-60(TB) leukemia it was 62.3 µM; in the assay on SF-268 CNS, over 100 µM.
Turning to `c1ccc(NC2(c3nnnn3C3CCCCC3)CCNCC2)cc1`, the TGI in the assay on SK-MEL-28 melanoma is 32.5 µM; in the assay on SF-295 CNS, 34.6 µM; in the assay with EKVX NSCLC it was 79.7 µM; in the assay on RPMI-8226 leukemia, 59.6 µM; with HOP-92 NSCLC, 32.3 µM; with KM12 colon, 31.3 µM. Moreover, the TGI with LOX IMVI melanoma came out at 30.7 µM; in the assay with TK-10 renal, 33.3 µM; in the assay with SK-MEL-5 melanoma it was 34.6 µM; in the assay with SN12C renal, 90.1 µM; in the assay with SW-620 colon it was 43.4 µM; in the assay with A498 renal it was 51 µM. Besides, the TGI is 31.5 µM in the assay with HL-60(TB) leukemia and over 100 µM in the assay on SF-268 CNS.
Consider `O=C(Nc1ccc(Cl)cc1)C(=O)C1=C(O)c2ccccc2OC1`, for which the TGI in the assay with SK-MEL-28 melanoma, in the assay with SF-295 CNS, in the assay with EKVX NSCLC, in the assay with RPMI-8226 leukemia, with HOP-92 NSCLC and with KM12 colon was over 100 µM each time. The TGI in the assay on LOX IMVI melanoma, with MDA-N, with TK-10 renal, in the assay with OVCAR-3 ovarian, with SK-MEL-5 melanoma and in the assay on SN12C renal was over 100 µM each time. Besides, the TGI in the assay on SW-620 colon, in the assay with SK-MEL-2 melanoma, in the assay on A498 renal, in the assay on HL-60(TB) leukemia and with SF-268 CNS was over 100 µM each time.
